# According to ChEMBL document CHEMBL1201862, “PubChem BioAssay data set” (2004):
#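 Growth conditions: 96-well plates. Treatment: test compound, 48 hours, 5 concentrations. Analysis: linear interpolation between bracketing concentrations; unreached endpoints set to highest concentration. Here, GI50 denotes the concentration required for 50% inhibition of growth.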 Activity calls are given as the source filed them. No stated cut-off is given here; in the data, active = GI50 up to about 1.1 µM and inactive = higher.
# Experiments:
# Assay in all cases: inhibition of tumour cell growth, NCI panel, 48 h
# 786-0 = system: 786-0
# A498 = system: A498
# A549 = system: A549
# ACHN = system: ACHN
# CAKI-1 = system: CAKI-1
# CCRF-CEM = system: CCRF-CEM
# DLD-1 = system: DLD-1
# EKVX = system: EKVX
# HCC 2998 = system: HCC 2998
# HCT-116 = system: HCT-116
# HCT-15 = system: HCT-15
# HOP-18 = system: HOP-18
# HOP-62 = system: HOP-62
# HOP-92 = system: HOP-92
# HT-29 = system: HT-29
# K562 = system: K562
# KM-20L2 = system: KM-20L2
# KM12 = system: KM12
# LOX IMVI = system: LOX IMVI
# LXFL 529 = system: LXFL 529
# M14 = system: M14
# M19-MEL = system: M19-MEL
# MOLT-4 = system: MOLT-4
# Malme-3M = system: Malme-3M
# NCI-H23 = system: NCI-H23
# NCI-H460 = system: NCI-H460
# NCI-H522 = system: NCI-H522
# OVCAR-3 = system: OVCAR-3
# OVCAR-4 = system: OVCAR-4
# OVCAR-5 = system: OVCAR-5
# OVCAR-8 = system: OVCAR-8
# RXF 393 = system: RXF 393
# RXF 631 = system: RXF 631
# SF-268 = system: SF-268
# SF-295 = system: SF-295
# SF-539 = system: SF-539
# SK-MEL-28 = system: SK-MEL-28
# SK-MEL-2 = system: SK-MEL-2
# SK-MEL-5 = system: SK-MEL-5
# SK-OV-3 = system: SK-OV-3
# SN12C = system: SN12C
# SNB-19 = system: SNB-19
# SNB-75 = system: SNB-75
# SNB-78 = system: SNB-78
# SR = system: SR
# SW-620 = system: SW-620
# TK-10 = system: TK-10
# U-251 = system: U-251
# UACC-62 = system: UACC-62
# UO-31 = system: UO-31
# XF498 = system: XF498
# COLO 205 = system: COLO 205
# DMS-114 = system: DMS-114
# HL-60 = system: HL-60
# IGROV-1 = system: IGROV-1
# NCI-H226 = system: NCI-H226
# RPMI-8226 = system: RPMI-8226
# UACC-257 = system: UACC-257
smiles,measurement,setting,value
CCN(CC)CC(C)(C)C(=O)/C=C/c1ccc(C)cc1,GI50,786-0,10.7 µM (inactive)
same,GI50,A498,4.54 µM (inactive)
same,GI50,A549,12.9 µM (inactive)
same,GI50,ACHN,14.6 µM (inactive)
same,GI50,CAKI-1,12.6 µM (inactive)
same,GI50,CCRF-CEM,2.82 µM (inactive)
same,GI50,DLD-1,11.5 µM (inactive)
same,GI50,EKVX,4.88 µM (inactive)
same,GI50,HCC 2998,10 µM (inactive)
same,GI50,HCT-116,4.3 µM (inactive)
same,GI50,HCT-15,3.61 µM
same,GI50,HOP-18,11.4 µM (inactive)
same,GI50,HOP-62,18.5 µM (inactive)
same,GI50,HOP-92,1.91 µM (inactive)
same,GI50,HT-29,3.86 µM (inactive)
same,GI50,K562,3.03 µM (inactive)
same,GI50,KM-20L2,4.17 µM (inactive)
same,GI50,KM12,5.87 µM (inactive)
same,GI50,LOX IMVI,11 µM (inactive)
same,GI50,LXFL 529,7.31 µM (inactive)
same,GI50,M14,12.1 µM (inactive)
same,GI50,M19-MEL,9.46 µM (inactive)
same,GI50,MOLT-4,3.39 µM (inactive)
same,GI50,Malme-3M,9.46 µM (inactive)
same,GI50,NCI-H23,> 10 µM (inactive)
same,GI50,NCI-H460,6.08 µM (inactive)
same,GI50,NCI-H522,3.03 µM (inactive)
same,GI50,OVCAR-3,9.14 µM (inactive)
same,GI50,OVCAR-4,11.6 µM (inactive)
same,GI50,OVCAR-5,14.5 µM (inactive)
same,GI50,OVCAR-8,11.8 µM (inactive)
same,GI50,RXF 393,9.62 µM (inactive)
same,GI50,RXF 631,9.42 µM (inactive)
same,GI50,SF-268,10.1 µM (inactive)
same,GI50,SF-295,13.2 µM (inactive)
same,GI50,SF-539,13.3 µM (inactive)
same,GI50,SK-MEL-28,13.5 µM (inactive)
same,GI50,SK-MEL-2,12.7 µM (inactive)
same,GI50,SK-MEL-5,14.2 µM (inactive)
same,GI50,SK-OV-3,22.6 µM (inactive)
same,GI50,SN12C,7.64 µM (inactive)
same,GI50,SNB-19,11.8 µM (inactive)
same,GI50,SNB-75,6.98 µM (inactive)
same,GI50,SNB-78,10.7 µM (inactive)
same,GI50,SR,3.61 µM (inactive)
same,GI50,SW-620,3.55 µM (inactive)
same,GI50,TK-10,14.5 µM (inactive)
same,GI50,U-251,15.3 µM (inactive)
same,GI50,UACC-62,13.6 µM (inactive)
same,GI50,UO-31,10.5 µM (inactive)
same,GI50,XF498,7.96 µM (inactive)
Cc1ccc(S(=O)(=O)NC(=O)Nc2nc(Cl)cc(Cl)n2)cc1,GI50,786-0,> 100 µM (inactive)
same,GI50,A498,> 100 µM (inactive)
same,GI50,A549,> 100 µM (inactive)
same,GI50,ACHN,> 100 µM (inactive)
same,GI50,CAKI-1,> 100 µM (inactive)
same,GI50,CCRF-CEM,> 100 µM (inactive)
same,GI50,COLO 205,> 100 µM (inactive)
same,GI50,DLD-1,> 100 µM (inactive)
same,GI50,DMS-114,96.4 µM (inactive)
same,GI50,EKVX,> 100 µM (inactive)
same,GI50,HCC 2998,28.3 µM (inactive)
same,GI50,HCT-116,> 100 µM (inactive)
same,GI50,HL-60,> 100 µM (inactive)
same,GI50,HOP-18,> 100 µM (inactive)
same,GI50,HOP-62,> 100 µM (inactive)
same,GI50,HOP-92,99.3 µM (inactive)
same,GI50,IGROV-1,> 100 µM (inactive)
same,GI50,K562,62.2 µM (inactive)
same,GI50,KM-20L2,> 100 µM (inactive)
same,GI50,KM12,> 100 µM (inactive)
same,GI50,LOX IMVI,> 100 µM (inactive)
same,GI50,LXFL 529,> 100 µM (inactive)
same,GI50,M14,> 100 µM (inactive)
same,GI50,M19-MEL,> 100 µM (inactive)
same,GI50,MOLT-4,57.7 µM (inactive)
same,GI50,Malme-3M,> 100 µM (inactive)
same,GI50,NCI-H226,> 100 µM (inactive)
same,GI50,NCI-H23,> 100 µM (inactive)
same,GI50,NCI-H460,> 100 µM (inactive)
same,GI50,NCI-H522,5.89 µM (inactive)
same,GI50,OVCAR-3,> 100 µM (inactive)
same,GI50,OVCAR-4,> 100 µM (inactive)
same,GI50,OVCAR-5,> 100 µM (inactive)
same,GI50,OVCAR-8,> 100 µM (inactive)
same,GI50,RPMI-8226,> 100 µM (inactive)
same,GI50,RXF 393,> 100 µM (inactive)
same,GI50,RXF 631,> 100 µM (inactive)
same,GI50,SF-268,> 100 µM (inactive)
same,GI50,SF-295,> 100 µM (inactive)
same,GI50,SF-539,> 100 µM (inactive)
same,GI50,SK-MEL-28,> 100 µM (inactive)
same,GI50,SK-MEL-2,> 100 µM (inactive)
same,GI50,SK-MEL-5,> 100 µM (inactive)
same,GI50,SK-OV-3,> 100 µM (inactive)
same,GI50,SN12C,> 100 µM (inactive)
same,GI50,SNB-19,> 100 µM (inactive)
same,GI50,SNB-75,> 100 µM (inactive)
same,GI50,SNB-78,> 100 µM (inactive)
same,GI50,SW-620,> 100 µM (inactive)
same,GI50,TK-10,> 100 µM (inactive)
same,GI50,U-251,> 100 µM (inactive)
same,GI50,UACC-257,19.2 µM (inactive)
same,GI50,UACC-62,> 100 µM (inactive)
same,GI50,UO-31,> 100 µM (inactive)
same,GI50,XF498,> 100 µM (inactive)
